What was measured:
[1] = test system: Lung-NSC NCI-H460; assay: human cancer cell growth inhibition, sulforhodamine B assay; assay type: cell-based; conditions: Table I; 48 hours
Procedure: (§1) Inhibition of human cancer cell growth was assessed using the National Cancer Institute's standard sulforhodamine B assay. After 48 hours, the plates were fixed with trichloracetic acid, stained with sulforhodamine B and read with an automated microplate reader. […] Inhibition of the mouse leukemia P388 cells was assessed in a 10% horse serum/Fisher medium soution for 24 hours, followed by a 48 hour incubation with serial dilutions of the compounds. Cell growth inhibition (ED50) was then calculated using a Z1 Becleman/Coulter particle counter.

[2] = test system: Colon KM20L2; assay: as above; assay type: cell-based; conditions: Table I; 48 hours
Procedure: as §1

[3] = test system: Prostate DU-145; assay: as above; assay type: cell-based; conditions: Table I; 48 hours
Procedure: as §1

[4] = test system: CNS SF268; assay: as above; assay type: cell-based; conditions: Table I; 48 hours
Procedure: as §1

[5] = test system: Breast MCF-7; assay: as above; assay type: cell-based; conditions: Table I; 48 hours
Procedure: as §1

[6] = test system: Pancreas BXPC-3; assay: as above; assay type: cell-based; conditions: Table I; 48 hours
Procedure: as §1

[7] = test system: Stenotrophomonas maltophilia; assay: reference broth microdilution susceptibility assay; assay type: cell-based; conditions: Table III
From the text: (§2) The halocombstatins of the present invention appear to also have antimicrobial properties. More specifically, they appear to have antifungal and/or antibacterial properties. Antimicrobial evaluation of the halocombstatins involved susceptibility testing performed by the reference broth microdilution assay. The antimicrobial activities of the halocombstatins were very similar, targeting Gram-positive bacteria and the pathogenic fungi Cryptococcus neoformans, and results are shown in Table III.
(§3) (See Pettit, G. R., et al., Antineoplastic Agents 463. Synthesis of Combretastatin A-3 Diphosphates, Anticancer Drug Design 2000, 15, 397-404.) To determine the antimicrobial activity of the present compounds, susceptibility testing was performed by the reference broth microdilution assay. (See National Committee for Clinical Laboratory Standards. Methods for Dilution Antimicrobial Susceptibility Tests for Bacteria that Grow Aerobically. Approved Standard M7-A5. Wayne, P A: NCCLS, 2000. National Committee for Clinical Laboratory Standards. Reference Method for Broth Dilution Antifungal Susceptibility Testing of Yeasts. Aproved Standard M27-A. Wayne, P A: NCCLS, 1997.) The antimicrobial activities of the halocombretastatins of the present invention were very similar, targeting Gram-positive bacteria and Cryptococcus neoformans. This is illustrated in further detail in Table III. Thus, several of the novel compounds of the present invention appear to have potential as antimicrobial agents, such as antifingals and antibacterials.

[8] = test system: Neisseria gonorrhoeae; assay: reference broth microdilution susceptibility assay; assay type: cell-based; conditions: Table III
From the text: as §2, §3

[9] = test system: Enterococcus faecalis; assay: reference broth microdilution susceptibility assay; assay type: cell-based; conditions: Table III
From the text: as §2, §3

[10] = test system: Cryptococcus neoformans; assay: reference broth microdilution susceptibility assay; assay type: cell-based; conditions: Table III
From the text: as §2, §3

[11] = test system: Staphylococcus aureus; assay: reference broth microdilution susceptibility assay; assay type: cell-based; conditions: Table III
From the text: as §2, §3

[12] = test system: Streptococcus pneumoniae; assay: reference broth microdilution susceptibility assay; assay type: cell-based; conditions: Table III
From the text: as §2, §3

[13] = test system: Escherichia coli; assay: reference broth microdilution susceptibility assay; assay type: cell-based; conditions: Table III
From the text: as §2, §3

[14] = test system: Enterobacter cloacae; assay: reference broth microdilution susceptibility assay; assay type: cell-based; conditions: Table III
From the text: as §2, §3

[15] = test system: Micrococcus luteus; assay: reference broth microdilution susceptibility assay; assay type: cell-based; conditions: Table III
From the text: as §2, §3

[16] = test system: Candida albicans; assay: reference broth microdilution susceptibility assay; assay type: cell-based; conditions: Table III
From the text: as §2, §3

[17] = test system: human umbilical vein endothelial cells (HUVEC); assay: Matrigel cord formation assay; assay type: cell-based; design: key: −: No Junctions; +: Few; ++: ˜50% of Control; +++: Same as Control; conditions: 24 hours, compared to untreated controls
Procedure: (§4) In vitro Matrigel antiangiogenesis assays were implemented according to the Developmental Therapeutics Program NCI/NIH protocols known to one of skill in the art. Matrigel, a basement membrane matrix, was obtained from BD Biosciences. Growth inhibition and cord formation assays were Conducted using human umbilical vein endothelial cells obtained from GlycoTeCh. HUVEC cells were grown in EGM-2 medium.
(§5) An aliquot of sixty microliters was placed in each well of an ice-cold 96-well plate. The plates were then left for 15 minutes at room temperature, then incubated for 30 minutes at 37° C. to permit the matrigel to polymerize. Meanwhile, HUVEC cells were harvested and diluted to a concentration of 2×10^5 cells/ml. A solution of 100 μL containing the compounds to be tested was added next. After 24 hours incubation, pictures were taken for each concentration using an inverted Nikon Diaphot microscope and D100 digital camera. Drug effect was assessed, compared to untreated controls, by measuring the length of cords formed and number ofjunctions.

[18] = test system: human umbilical vein endothelial cells (HUVEC); assay: HUVEC growth inhibition, sulforhodamine B assay; assay type: cell-based; conditions: for Relative % Growth: HUVEC; for Human Umbilical Vein Endothelial Cell (HUVEC) Inhibition Values (GI50): Table V
Procedure: as §4
The standard sulforhodamine B assay (see Cancer Cell Line Procedures above) was used to evaluate results using HUVEC cells. IC50 or ED50 (drug concentration causing 50% inhibition) was calculated from the plotted data.

[19] = test system: human umbilical vein endothelial cells (HUVEC); assay: Matrigel cord formation assay; assay type: cell-based; design: key to Lengths of Cords: −: No Cords; +: Small; ++: ˜50% of Control; +++: Same as Control; conditions: 24 hours, compared to untreated controls
Procedure: as §4, §5

Molecule: COc1ccc(/C=C\c2cc(I)c(OC)c(OC)c2)cc1C(C)=O
- melting point: 103 to 104 °C

Molecule: 3-Brombo-4,4′,5-trimethoxy-3′-hydroxy-E-stilbene [Compound 13b]
- Human cancer cell line inhibition (GI50) Lung-NSC NCI-H460 [1]: 0.15 µg/mL
- Human cancer cell line inhibition (GI50) Colon KM20L2 [2]: 1.2 µg/mL
- Human cancer cell line inhibition (GI50) Prostate DU-145 [3]: 0.13 µg/mL
- Human cancer cell line inhibition (GI50) CNS SF268 [4]: 0.18 µg/mL
- Human cancer cell line inhibition (GI50) Breast adn MCF-7 [5]: 0.14 µg/mL
- Human cancer cell line inhibition (GI50) Pancreas-a BXPC-3 [6]: 1.6 µg/mL
- Range of minimum inhibitory concentration, Stenotrophomonas maltophilia [7]: * (no inhibition at 64 μg/ml)
- Range of minimum inhibitory concentration, Neisseria gonorrhoeae [8]: * (no inhibition at 64 μg/ml)
- Range of minimum inhibitory concentration, Enterococcus faecalis [9]: * (no inhibition at 64 μg/ml)
- Range of minimum inhibitory concentration, Cryptococcus neoformans [10]: * (no inhibition at 64 μg/ml)
- Range of minimum inhibitory concentration, Staphylococcus aureus [11]: * (no inhibition at 64 μg/ml)
- Range of minimum inhibitory concentration, Streptococcus pneumoniae [12]: * (no inhibition at 64 μg/ml)
- Range of minimum inhibitory concentration, Escherichia coli [13]: * (no inhibition at 64 μg/ml)
- Range of minimum inhibitory concentration, Enterobacter cloacae [14]: * (no inhibition at 64 μg/ml)
- Range of minimum inhibitory concentration, Micrococcus luteus [15]: * (no inhibition at 64 μg/ml)
- Range of minimum inhibitory concentration, Candida albicans [16]: * (no inhibition at 64 μg/ml)

Molecule: Sodium 3,5-diiodo-4,4′dimethoxy-z-stilbene 3′-O-phosphate [Compound T (Table Ia)]
- Number of junctions ([17]; 1 μg/ml): −
- Relative % Growth ([18]; 0.0001 μg/ml): >100%
- Relative % Growth ([18]; 0.01 μg/ml): >100%
- Relative % Growth ([18]; 0.1 μg/ml): −2%
- Relative % Growth ([18]; 1 μg/ml): −7%
- Human Umbilical Vein Endothelial Cell (HUVEC) Inhibition Values (GI50) [18]: 0.051 µg/mL
- Lengths of Cords ([19]; 0.1 μg/ml): +
- Lengths of Cords ([19]; 1 μg/ml): −

Molecule: Sodium 3-iodo-4,4′,5-trimethoxy-z-stilbene 3′-O-phosphate [Compound 20a]
- Human cancer cell line inhibition (GI50) Lung-NSC NCI-H460 [1]: 0.0031 µg/mL
- Human cancer cell line inhibition (GI50) Colon KM20L2 [2]: 0.37 µg/mL
- Human cancer cell line inhibition (GI50) Prostate DU-145 [3]: 0.0078 µg/mL
- Human cancer cell line inhibition (GI50) CNS SF268 [4]: 0.0052 µg/mL
- Human cancer cell line inhibition (GI50) Breast adn MCF-7 [5]: 0.012 µg/mL
- Human cancer cell line inhibition (GI50) Pancreas-a BXPC-3 [6]: 0.47 µg/mL
- Number of junctions ([17]; 0.001 μg/ml): +
- Number of junctions ([17]; 0.01 μg/ml): −
- Number of junctions ([17]; 0.1 μg/ml): −
- Range of minimum inhibitory concentration, Stenotrophomonas maltophilia [7]: * (no inhibition at 64 μg/ml)
- Range of minimum inhibitory concentration, Neisseria gonorrhoeae [8]: 16 to 32 µg/mL
- Range of minimum inhibitory concentration, Enterococcus faecalis [9]: * (no inhibition at 64 μg/ml)
- Range of minimum inhibitory concentration, Cryptococcus neoformans [10]: * (no inhibition at 64 μg/ml)
- Range of minimum inhibitory concentration, Staphylococcus aureus [11]: * (no inhibition at 64 μg/ml)
- Range of minimum inhibitory concentration, Streptococcus pneumoniae [12]: * (no inhibition at 64 μg/ml)
- Range of minimum inhibitory concentration, Escherichia coli [13]: * (no inhibition at 64 μg/ml)
- Range of minimum inhibitory concentration, Enterobacter cloacae [14]: * (no inhibition at 64 μg/ml)
- Range of minimum inhibitory concentration, Micrococcus luteus [15]: * (no inhibition at 64 μg/ml)
- Range of minimum inhibitory concentration, Candida albicans [16]: * (no inhibition at 64 μg/ml)
- Relative % Growth ([18]; 0.0001 μg/ml): 104%
- Relative % Growth ([18]; 0.001 μg/ml): 5%
- Relative % Growth ([18]; 0.01 μg/ml): 14%
- Relative % Growth ([18]; 0.1 μg/ml): 7%
- Human Umbilical Vein Endothelial Cell (HUVEC) Inhibition Values (GI50) [18]: 0.00035 µg/mL
- Lengths of Cords ([19]; 0.001 μg/ml): +
- Lengths of Cords ([19]; 0.01 μg/ml): −
- Lengths of Cords ([19]; 0.1 μg/ml): −

Molecule: Sodium 3-fluoro-4,4′,5-trimethoxy-Z-stilbene 3′-O-phosphate [Compound 18a]
- Human cancer cell line inhibition (GI50) Lung-NSC NCI-H460 [1]: 0.0094 µg/mL
- Human cancer cell line inhibition (GI50) Colon KM20L2 [2]: 1.5 µg/mL
- Human cancer cell line inhibition (GI50) Prostate DU-145 [3]: 0.0036 µg/mL
- Human cancer cell line inhibition (GI50) CNS SF268 [4]: 0.0051 µg/mL
- Human cancer cell line inhibition (GI50) Breast adn MCF-7 [5]: 0.0044 µg/mL
- Human cancer cell line inhibition (GI50) Pancreas-a BXPC-3 [6]: 0.59 µg/mL
- Range of minimum inhibitory concentration, Stenotrophomonas maltophilia [7]: * (no inhibition at 64 μg/ml)
- Range of minimum inhibitory concentration, Neisseria gonorrhoeae [8]: 16 µg/mL
- Range of minimum inhibitory concentration, Enterococcus faecalis [9]: * (no inhibition at 64 μg/ml)
- Range of minimum inhibitory concentration, Cryptococcus neoformans [10]: * (no inhibition at 64 μg/ml)
- Range of minimum inhibitory concentration, Staphylococcus aureus [11]: * (no inhibition at 64 μg/ml)
- Range of minimum inhibitory concentration, Streptococcus pneumoniae [12]: * (no inhibition at 64 μg/ml)
- Range of minimum inhibitory concentration, Escherichia coli [13]: * (no inhibition at 64 μg/ml)
- Range of minimum inhibitory concentration, Enterobacter cloacae [14]: * (no inhibition at 64 μg/ml)
- Range of minimum inhibitory concentration, Micrococcus luteus [15]: * (no inhibition at 64 μg/ml)
- Range of minimum inhibitory concentration, Candida albicans [16]: * (no inhibition at 64 μg/ml)

Molecule: 3-Fluoro-4,4′,5-trimethoy-3′-hydroxy-E-stilhene [Compound 11b]
- Human cancer cell line inhibition (GI50) Lung-NSC NCI-H460 [1]: 0.18 µg/mL
- Human cancer cell line inhibition (GI50) Colon KM20L2 [2]: 0.53 µg/mL
- Human cancer cell line inhibition (GI50) Prostate DU-145 [3]: 0.18 µg/mL
- Human cancer cell line inhibition (GI50) CNS SF268 [4]: 0.35 µg/mL
- Human cancer cell line inhibition (GI50) Breast adn MCF-7 [5]: 0.051 µg/mL
- Human cancer cell line inhibition (GI50) Pancreas-a BXPC-3 [6]: 2.2 µg/mL
- Range of minimum inhibitory concentration, Stenotrophomonas maltophilia [7]: * (no inhibition at 64 μg/ml)
- Range of minimum inhibitory concentration, Neisseria gonorrhoeae [8]: 8 to 16 µg/mL
- Range of minimum inhibitory concentration, Enterococcus faecalis [9]: * (no inhibition at 64 μg/ml)
- Range of minimum inhibitory concentration, Cryptococcus neoformans [10]: 64 µg/mL
- Range of minimum inhibitory concentration, Staphylococcus aureus [11]: 32 to 64 µg/mL
- Range of minimum inhibitory concentration, Streptococcus pneumoniae [12]: 64 µg/mL
- Range of minimum inhibitory concentration, Escherichia coli [13]: * (no inhibition at 64 μg/ml)
- Range of minimum inhibitory concentration, Enterobacter cloacae [14]: * (no inhibition at 64 μg/ml)
- Range of minimum inhibitory concentration, Micrococcus luteus [15]: 16 to 32 µg/mL
- Range of minimum inhibitory concentration, Candida albicans [16]: * (no inhibition at 64 μg/ml)

— US20070167412A1, “HALOCOMBSTATINS AND METHODS OF SYNTHESIS THEREOF” (ARIZONA BOARD OF REGENTS, priority 2003, published 2007)
